Laboratory results from patent publication US8916702B2 (priority 2012, dated 2014).
Read-outs that look alike come from different tables or passages of the source.

Tested on: HCV pseudoparticles (genotype 1a HCV E1 and E2 envelope, H77C isolate)
Assay: microbe, parasite or virus in culture
Format: cell-based
[1] = Hepatitis C virus, Huh-7, 48 h, read-out: Activity (EC50 class), HCV pseudoparticle infection of Huh7 cells, luciferase 2 days after infection, EC50 expressed as class A/B
[2] = Hepatitis C virus, Huh-7, 48 h, HCV pseudoparticle infection of Huh7 cells, luciferase 2 days after infection, average of duplicates
[3] = Hepatitis C virus, Huh-7, read-out: Activity (EC50 class), HCV pseudoparticles (genotype 1a, H77C) in Huh7 cells, EC50 expressed as class A/B
[4] = Hepatitis C virus, Huh-7, 48 h, HCV pseudoparticles, Huh7 cells, luciferase 2 days after infection, average of duplicates
[5] = Hepatitis C virus, Huh-7, 48 h, read-out: Activity (EC50 class), HCV pseudoparticles, Huh7 cells, luciferase 2 days after infection, average of duplicates
[6] = Hepatitis C virus, Huh-7, 48 h, HCV pseudoparticles (genotype 1a, H77C) in Huh7 cells, average of duplicate, luciferase 2 days after infection

O=C(NC[C@H](NC(=O)c1ccc(Nc2nc(NC3(c4ccc(Cl)cc4)CC3)nc(OCC(F)(F)F)n2)cc1)C(=O)O)C(=O)Nc1cccnc1 [Compound 1367]
EC50 [1]: 0.01 to 10 nM

NC(=O)C(=O)NC[C@H](NC(=O)c1ccc(Nc2nc(NC3(c4ccc(Cl)cc4)CC3)nc(OCC(F)(F)F)n2)cc1)C(=O)O [Compound 1005, (S)-3-(2-amino-2-oxoacetamido)-2-(4-(4-(1-(4-chlorophenyl)cyclopropylamino)-6-(2,2,2-trifluoroethoxy)-1,3,5-triazin-2-ylamino)benzamido)propanoic acid]
EC50 [1]: 0.01 to 10 nM

COC(=O)[C@H](CNC(=O)C(N)=O)NC(=O)c1ccc(Nc2nc(NC3(c4ccc(Cl)cc4)CC3)nc(OCC(F)(F)F)n2)cc1 [Compound 1002, (S)-methyl 3-(2-amino-2-oxoacetamido)-2-(4-(4-(1-(4-chlorophenyl)cyclopropylamino)-6-(2,2,2-trifluoroethoxy)-1,3,5-triazin-2-ylamino)benzamido)propanoate]
EC50 [2]: 2.11 nM
EC50 [1]: 0.01 to 10 nM

COC(=O)/C(CCNC(=O)C(=O)Nc1ccc(OCCN2CCCCC2)nc1)=N\C(=O)c1ccc(Nc2nc(NC3(c4ccc(Cl)cc4)CC3)nc(OCC(F)(F)F)n2)cc1 [Compound 3598]
EC50 [3]: 0.01 to 10 nM

CC(C)(CNC(=O)C(=O)Nc1cc[nH]n1)CNC(=O)c1ccc(Nc2nc(NC3(c4ccc(Cl)cc4)CC3)nc(OCC(F)(F)F)n2)cc1 [Compound 3794]
EC50 [4]: 0.061 nM
EC50 [5]: 0.01 to 10 nM

O=C(NCC[C@H](NC(=O)c1ccc(Nc2nc(NC3(c4ccc(Cl)cc4)CC3)nc(OCC(F)(F)F)n2)cc1)C(=O)O)C(=O)Nc1ccc(OC2CCOCC2)cc1 [Compound 3546]
EC50 [3]: 0.01 to 10 nM

CCN(CC)CCNC(=O)c1ccc(NC(=O)C(=O)NC/C(=N/C(=O)c2ccc(Nc3nc(NC4(c5ccc(Cl)cc5)CC4)nc(OCC(F)(F)F)n3)cc2)C(=O)O)cc1 [Compound 3157]
EC50 [3]: 0.01 to 10 nM

CN(CCCN(C)C(=O)c1ccc(Nc2nc(NC3(c4ccc(Cl)cc4)CC3)nc(OCC(F)(F)F)n2)cc1)C(=O)C(=O)Nc1nccs1 [Compound 3430]
EC50 [6]: 1.45 nM
EC50 [3]: 0.01 to 10 nM

CC(C)(CNC(=O)C(=O)Nc1ccc(-c2ccc(-c3ccccc3)cc2)cc1)CNC(=O)c1ccc(Nc2nc(NC3(c4ccc(Cl)cc4)CC3)nc(OCC(F)(F)F)n2)cc1 [Compound 1564]
EC50 [1]: 0.01 to 10 nM

COc1ccc(NC(=O)C(=O)NCC(C)(C)CNC(=O)c2ccc(Nc3nc(NC4(c5ccc(Cl)cc5)CC4)nc(OCc4ccc(C(C)C)cc4)n3)cc2F)cc1 [Compound 3828]
EC50 [4]: 0.35 nM
EC50 [5]: 0.01 to 10 nM

COc1ccc(CNC(=O)C(=O)NCC[C@H](NC(=O)c2ccc(Nc3nc(NC4(c5ccc(Cl)cc5)CC4)nc(OCC(F)(F)F)n3)cc2)C(=O)O)cc1OC [Compound 1184]
EC50 [1]: 0.01 to 10 nM

CC(C)(CNC(=O)C(=O)Nc1ccc(Cl)c(F)c1)CNC(=O)c1ccc(Nc2nc(NC3(c4ccc(Cl)cc4)CC3)nc(OCC(F)(F)F)n2)cc1 [Compound 3071]
EC50 [3]: 0.01 to 10 nM

Cn1ccnc1NC(=O)C(=O)NC[C@H](NC(=O)c1ccc(Nc2nc(NC3(c4ccc(Cl)cc4)CC3)nc(OCC(F)(F)F)n2)cc1)C(=O)O [Compound 1352]
EC50 [1]: 0.01 to 10 nM

CC(C)(CNC(=O)C(=O)Nc1ccc(Cl)nc1)CNC(=O)c1ccc(Nc2nc(NC3(c4ccc(Cl)cc4)CC3)nc(OCC(F)(F)F)n2)cc1 [Compound 3255]
EC50 [6]: 0.029 nM
EC50 [3]: 0.01 to 10 nM

O=C(NCCc1ccccc1)C(=O)NCC[C@H](NC(=O)c1ccc(Nc2nc(NC3(c4ccc(Cl)cc4)CC3)nc(OCC(F)(F)F)n2)cc1)C(=O)O [Compound 1328]
EC50 [1]: 0.01 to 10 nM

COC(=O)[C@H](CCNC(=O)C(=O)Nc1ccc(C2CCCCC2)cc1)NC(=O)c1ccc(Nc2nc(NC3(c4ccc(Cl)cc4)CC3)nc(OCC(F)(F)F)n2)cc1 [Compound 3111]
EC50 [3]: 0.01 to 10 nM

O=C(NC[C@H](NC(=O)c1ccc(Nc2nc(NC3(c4ccc(Cl)cc4)CC3)nc(OCC(F)(F)F)n2)cc1)C(=O)O)C(=O)Nc1ccc(N2CCCC2)nc1 [Compound 3776]
EC50 [5]: 0.01 to 10 nM

O=C(NC[C@H](NC(=O)c1ccc(Nc2nc(NC3(c4ccc(Cl)cc4)CC3)nc(OCC(F)(F)F)n2)cc1)C(=O)O)C(=O)NC1CCCCC1O (stereo partly shown) [Compound 1081]
EC50 [1]: 0.01 to 10 nM

COC(=O)[C@H](CCNC(=O)C(=O)Nc1ccc(C)cc1)NC(=O)c1ccc(Nc2nc(NC3(c4ccc(Cl)cc4)CC3)nc(OCC(F)(F)F)n2)cc1 [Compound 3217]
EC50 (HCV pseudoparticles (genotype 1a, H77C) in Huh7 cells, average of duplicate, luciferase 2 days after infection): 0.087 nM
EC50 (read-out: Activity (EC50 class), HCV pseudoparticles (genotype 1a, H77C) in Huh7 cells, EC50 expressed as class A/B): 0.01 to 10 nM

COc1cccc2sc(NC(=O)C(=O)NCC(C)(C)CNC(=O)c3ccc(Nc4nc(NC5(c6ccc(Cl)cc6)CC5)nc(OCC(F)(F)F)n4)cc3)nc12 [Compound 3813]
EC50 [5]: 0.01 to 10 nM

CC(C)(CNC(=O)C(=O)Nc1cccc(Oc2ccccc2)c1)CNC(=O)c1ccc(Nc2nc(NC3(c4ccc(Cl)cc4)CC3)nc(OCC(F)(F)F)n2)cc1 [Compound 3667]
EC50 [5]: 0.01 to 10 nM

COC(=O)[C@H](CNC(=O)C(=O)NCCc1cccnc1)NC(=O)c1ccc(Nc2nc(NC3(c4ccc(Cl)cc4)CC3)nc(OCC(F)(F)F)n2)cc1 [Compound 1293]
EC50 [2]: 4.4 nM
EC50 [1]: 0.01 to 10 nM

COC(=O)[C@H](CCNC(=O)C(=O)NCCn1cncn1)NC(=O)c1ccc(Nc2nc(NC3(c4ccc(Cl)cc4)CC3)nc(OCC(F)(F)F)n2)cc1 [Compound 1321]
EC50 [1]: 0.01 to 10 nM

O=C(NCC[C@H](NC(=O)c1ccc(Nc2nc(NC3(c4ccc(Cl)cc4)CC3)nc(OCC(F)(F)F)n2)cc1)C(=O)O)C(=O)Nc1cc(F)c(F)cc1F [Compound 1514]
EC50 [2]: 0.04 nM
EC50 [1]: 0.01 to 10 nM

CC1(C)C(CNC(=O)C(=O)NCC[C@@H](NC(=O)c2ccc(Nc3nc(NC4(c5ccc(Cl)cc5)CC4)nc(OCC(F)(F)F)n3)cc2)C(=O)O)C1(C)C [Compound 1449]
EC50 [1]: 0.01 to 10 nM

Cc1nc(-c2cccc(NC(=O)C(=O)NC[C@H](NC(=O)c3ccc(Nc4nc(NC5(c6ccc(Cl)cc6)CC5)nc(OCC(F)(F)F)n4)cc3)C(=O)Cl)c2)no1 [Compound 3785]
EC50 [5]: 0.01 to 10 nM

COC(=O)[C@H](CCNC(=O)C(=O)Nc1ccc(-c2ccc(C)cc2)cc1)NC(=O)c1ccc(Nc2nc(NC3(c4ccc(Cl)cc4)CC3)nc(OCC(F)(F)F)n2)cc1 [Compound 3305]
EC50 [3]: 0.01 to 10 nM

CN(C)CCOc1ccc(NC(=O)C(=O)NCC[C@H](NC(=O)c2ccc(Nc3nc(NC4(c5ccc(Cl)cc5)CC4)nc(OCC(F)(F)F)n3)cc2)C(=O)O)cn1 [Compound 3660]
EC50 [4]: 1.67 nM
EC50 [5]: 0.01 to 10 nM

O=C(NCCc1ccncc1)C(=O)NC[C@H](NC(=O)c1ccc(Nc2nc(NC3(c4ccc(Cl)cc4)CC3)nc(OCC(F)(F)F)n2)cc1)C(=O)O [Compound 1400]
EC50 [2]: 3.77 nM
EC50 [1]: 0.01 to 10 nM

O=C(NC[C@H](NC(=O)c1ccc(Nc2nc(NC3(c4ccc(Cl)cc4)CC3)nc(OCC(F)(F)F)n2)cc1)C(=O)O)C(=O)NC1CCCCC1 [Compound 1174]
EC50 [1]: 0.01 to 10 nM

CC(C)(CNC(=O)C(=O)NS(=O)(=O)C1CC1)CNC(=O)c1ccc(Nc2nc(NC3(c4ccc(Cl)cc4)CC3)nc(OCC(F)(F)F)n2)cc1 [Compound 3032]
EC50 [3]: 0.01 to 10 nM

CC(C)(CNC(=O)C(=O)Nc1cccc(C(=O)Nc2ccccc2)c1)CNC(=O)c1ccc(Nc2nc(NC3(c4ccc(Cl)cc4)CC3)nc(OCC(F)(F)F)n2)cc1 [Compound 3669]
EC50 [5]: 0.01 to 10 nM

O=C(NCC[C@H](NC(=O)c1ccc(Nc2nc(NC3(c4ccc(Cl)cc4)CC3)nc(OCC(F)(F)F)n2)cc1)C(=O)O)C(=O)NCCn1cncn1 [Compound 1342]
EC50 [1]: 0.01 to 10 nM

Cn1cc(NC(=O)C(=O)NCC[C@H](NC(=O)c2ccc(Nc3nc(NC4(c5ccc(Cl)cc5)CC4)nc(OCC(F)(F)F)n3)cc2)C(=O)O)cn1 [Compound 1268]
EC50 [1]: 0.01 to 10 nM

COC(=O)[C@@H](CCNC(=O)C(=O)Nc1cccc(OCc2ccccc2)c1)NC(=O)c1ccc(Nc2nc(NC3(c4ccc(Cl)cc4)CC3)nc(OCC(F)(F)F)n2)cc1 [Compound 3571]
EC50 [3]: 0.01 to 10 nM

O=C(Nc1nccs1)C(=O)N[C@H](CCNC(=O)c1ccc(Nc2nc(NC3(c4ccc(Cl)cc4)CC3)nc(OCC(F)(F)F)n2)cc1)C(=O)O [Compound 3496]
EC50 [3]: 10 to 1000 nM

COC(=O)[C@H](CCNC(=O)C(=O)NC[C@H]1C[C@H]1c1ccc(C)cc1)NC(=O)c1ccc(Nc2nc(NC3(c4ccc(Cl)cc4)CC3)nc(OCC(F)(F)F)n2)cc1 [Compound 1393]
EC50 [1]: 0.01 to 10 nM

CC(C)(CNC(=O)c1ccc(Nc2nc(NC3(c4ccc(Cl)cc4)CC3)nc(OCC(F)(F)F)n2)cc1)NC(=O)C(=O)Nc1cccc(F)c1 [Compound 3421]
EC50 [3]: 0.01 to 10 nM

COC(=O)[C@H](CNC(=O)C(=O)NCc1cccc(OC)c1)NC(=O)c1ccc(Nc2nc(NC3(c4ccc(Cl)cc4)CC3)nc(OCC(F)(F)F)n2)cc1 [Compound 1151]
EC50 [2]: 1.62 nM
EC50 [1]: 0.01 to 10 nM

CC(C)n1ccc(NC(=O)C(=O)NCC(C)(C)CNC(=O)c2ccc(Nc3nc(NC4(c5ccc(Cl)cc5)CC4)nc(OCC(F)(F)F)n3)cc2)n1 [Compound 3836]
EC50 [5]: 0.01 to 10 nM

O=C(NCC[C@H](NC(=O)c1ccc(Nc2nc(NC3(c4ccc(Cl)cc4)CC3)nc(OCC(F)(F)F)n2)cc1)C(=O)O)C(=O)Nc1ccccc1 [Compound 1433]
EC50 [1]: 0.01 to 10 nM

CCc1ccc(NC(=O)C(=O)NCC[C@H](NC(=O)c2ccc(Nc3nc(NC4(c5ccc(Cl)cc5)CC4)nc(OCC(F)(F)F)n3)cc2)C(=O)OC)cc1 [Compound 3330]
EC50 [3]: 0.01 to 10 nM

O=C(NCC[C@H](NC(=O)c1ccc(Nc2nc(NC3(c4ccc(Cl)cc4)CC3)nc(OCC(F)(F)F)n2)cc1)C(=O)O)C(=O)Nc1ccc(Oc2cccnc2)nc1 [Compound 3624]
EC50 [5]: 0.01 to 10 nM

COC(=O)[C@H](CNC(=O)C(=O)Nc1cccc(-c2ccc(Cl)cc2)c1)NC(=O)c1ccc(Nc2nc(NC3(c4ccc(Cl)cc4)CC3)nc(OCC(F)(F)F)n2)cc1 [Compound 3720]
EC50 [5]: 0.01 to 10 nM
